{"source": "patent US8877792B2", "about": "“Compositions for increasing solubility of azole drug compounds that are poorly soluble in water” (Dow Pharmaceutical Sciences, Inc., priority 2008, dated 2014)", "origin": "cited, not measured here", "conditions": "background statement, cited from earlier work"}
{"compound": "Cc1ncc([N+](=O)[O-])n1CCO", "note": "[Metronidazole, metronidazole]", "values": [{"measurement": "aqueous solubility of metronidazole in water", "setting": "room temperature", "result": "about 0.87 % w/w"}, {"measurement": "limit of metronidazole concentration for physically stable solutions in water", "setting": "solutions that can withstand cold temperatures encountered during shipping", "result": "about 0.7 % w/w"}]}
